Measurements reported in patent US20160175380A1, “Compositions and Methods of Treatment of Corneal Endothelium Disorders” (The Schepens Eye Research Institute, Inc., priority 2010, published 2016).
Like-named read-outs stand apart in the source and are kept apart here.

How the values were obtained:
[1] = test system: FECD corneal endothelium attached to the Descemet membrane; experiment: Endothelial cell apoptosis (TUNEL) in post-keratoplasty FECD specimens, +/- tBHP; assay type: cell-based, human
Procedure: Immunocytochemistry. […] After permeabilization, corneas were incubated with goat anti-8-OHdG (1:200; Millipore) followed by incubation with appropriate secondary antibodies. Nuclei were stained with TO-PRO-3 iodide (Molecular Probes). Corneal endothelial tight junctions were detected by rabbit anti-zonula occludens-1 (anti-ZO-1) antibody (1:300; Invitrogen).
An Nrf2-controlled pathway is affected during the endothelial cell loss from surgery and from dystrophic degeneration. […] Nrf2 is a transcription factor that causes a coordinated upregulation of multiple antioxidants, such as glutathione transferases, glutathione peroxidases, peroxiredoxins, thioredoxins, NADH(P)H hydrogenases, heme-oxygenases, glutamate- cysteine ligases. Sulforaphane (SF) and D3T upregulate Nrf2 on a protein level and enhance cellular antioxidant defense. Thus, studies were carried out to investigate the effect of SF on endothelial cell apoptosis with and without pro-oxidants. Post-keratoplasty FECD specimens, containing corneal endothelium attached to the Descemet membrane, were exposed to four experimental conditions: +/− tBHP with is a long acting pro-oxidant and +/−SF. The rate of endothelial cell apoptosis (as detected by TUNEL) in FECD endothelium was 31% and it decreased to 13% (p=1.5E-06) with SF treatment. Under pro-oxidant conditions, SF decreased endothelial cell apoptosis from 60% to 33% (p=0.016) (FIG. 11A). Similarly, D3T diminished endothelial cell apoptosis by decreasing the number of apoptotic cells from 52% to 30% (p<0.05) (FIG. 11B).

[2] = test system: Nrf2 mRNA expression in HCECi; conditions: H2O2 200 μM, 2 hours; normalized to B2M; non-treated control 1.00±0.05; P=0.004
Procedure: Human Corneal Endothelial Cell Culture. […] The culture medium of subconfluent cells was replaced with serum-free medium (OptiMEM-1; Invitrogen-Life Technologies) alone or supplemented with H2O2 (200 μM) and incubated for 2 hours at 37° C. At the end of the treatment, cell viability was evaluated by trypan blue staining. Real-time PCR. […] Reverse transcription was performed using a commercially available kit (Promega). […] Real-time PCR reactions were run on an ABI Prism 7500 HT Sequence Detection System (Applied Biosystems). For data analysis, the comparative Ct method was performed.

HCECi = conditions: H2O2 200 μM, 2 hours; P=0.001
Procedure: Human Corneal Endothelial Cell Culture. […] The culture medium of subconfluent cells was replaced with serum-free medium (OptiMEM-1; Invitrogen-Life Technologies) alone or supplemented with H2O2 (200 μM) and incubated for 2 hours at 37° C. At the end of the treatment, cell viability was evaluated by trypan blue staining.

[3] = test system: mouse corneal endothelium; conditions: 30 minutes
Procedure: Corneal Whole Mount Assays. Eight (8-) to 12-wk-old male BALB/c and C57BL/6 (from Taconic Farms, Germantown, NY and our own breeding facility) were used for corneal whole mount assays. All protocols were approved by the Schepens Eye Research Institute Animal Care and Use Committee, and all animals were treated according to the Association for Research in Vision and Ophthalmology Statement for the Use of Animals in Ophthalmic and Vision Research. […] Control corneal buttons were incubated in DMEM only at 37° C. for 0-12 hours. Immunocytochemistry. Immunocytochemistry was performed as previously described.17 Normal, FECD, and PBK corneas were incubated in culture medium containing 100 nM MitoTracker Red CMXRos (Molecular Probes) for 30 minutes at 37° C., then fixed with 3.7% formaldehyde. […] Millipore) followed by incubation with appropriate secondary antibodies. Nuclei were stained with TO-[…] iodide (Molecular Probes). […] Invitrogen). […] Bioscience), propidium iodide (1:200; Invitrogen), and TUNEL assay (In Situ Cell Death Detection Kit, Roche Diagnostics GmbH) according to the manufacturers' instructions. Digital images were obtained using a spectral photometric confocal microscope ([…][…] with LCS 1.3.1 software). Analysis of CE Cell Morphology. […] (variation in cell size) and pleomorphism (variation in cell shape) were then calculated.

[4] = test system: mouse corneal endothelium; conditions: 1 μM
Procedure: Corneal Whole Mount Assays. Eight (8-) to 12-wk-old male BALB/c and C57BL/6 (from Taconic Farms, Germantown, NY and our own breeding facility) were used for corneal whole mount assays. All protocols were approved by the Schepens Eye Research Institute Animal Care and Use Committee, and all animals were treated according to the Association for Research in Vision and Ophthalmology Statement for the Use of Animals in Ophthalmic and Vision Research. […] Control corneal buttons were incubated in DMEM only at 37° C. for 0-12 hours. Immunocytochemistry. Immunocytochemistry was performed as previously described.17 Normal, FECD, and PBK corneas were incubated in culture medium containing 100 nM MitoTracker Red CMXRos (Molecular Probes) for 30 minutes at 37° C., then fixed with 3.7% formaldehyde. […] Millipore) followed by incubation with appropriate secondary antibodies. Nuclei were stained with TO-[…] iodide (Molecular Probes). […] Invitrogen). […] Bioscience), propidium iodide (1:200; Invitrogen), and TUNEL assay (In Situ Cell Death Detection Kit, Roche Diagnostics GmbH) according to the manufacturers' instructions. Digital images were obtained using a spectral photometric confocal microscope ([…][…] with LCS 1.3.1 software).

S=c1ccss1 [D3T, 3H-1,2-dithiole-3-thione]
number of apoptotic cells with D3T ([1]; FECD, absence of oxidative stress, 52% without D3T, p<0.05): 30% | effect on percentage of apoptotic cells in FECD ([1]; absence of oxidative stress): decreased the percentage of apoptotic cells

OO [H2O2, hydrogen peroxide]
relative expression of Nrf2 mRNA (mean±SEM) [2]: 0.66±0.02 | level of 8-OHdG relative to control cells (HCECi): 2 fold | CE cell density as measured by ZO-1 labeling ([3]; 0-100 μM): no statistically significant effect | percent of hexagonal cells (pleomorphism) ([3]; 100 μM, P=0.007): declined significantly | mitochondrial staining (MitoTracker CMXRos) ([4]; 1-hour treatment): decline in the mitochondrial density | mitochondrial staining (MitoTracker CMXRos) ([4]; 2-hour treatment, P<0.01): no detectable mitochondrial staining | CE cells with early apoptosis (annexin-V-positive, PI-negative) ([4]; 60 minutes, P<0.01): Approximately 5% | CE cells with early apoptosis (annexin-V-positive, PI-negative) ([4]; 90 minutes, P<0.01): ~11% | mitochondrial staining (MitoTracker CMXRos) ([4]; 90 minutes, P<0.01): significant decrease | late apoptosis (annexin-V-positive, PI-positive) ([4]; 120 minutes, P<0.01): identified

C[S+]([O-])CCCCN=C=S (stereo not shown) [SF, sulforaphane]
rate of endothelial cell apoptosis (as detected by TUNEL) with SF treatment ([1]; FECD endothelium, without pro-oxidant (tBHP-), 31% without SF, p=1.5E-06): 13% | endothelial cell apoptosis with SF under pro-oxidant conditions ([1]; FECD specimens exposed to tBHP, 60% without SF, p=0.016): 33% | decrease of endothelial cell apoptosis in FECD ([1]; SF treatment, without pro-oxidant conditions [tBHP-], p=1.57E-06): 58% | decrease of endothelial cell apoptosis ([1]; specimens exposed to pro-oxidants or tBHP, p=0.016): ≤ 45%
